The values that follow come from patent publication US20040229816A1, “Anti-angiogenic and anti-tumoral properties of beta and gamma secretase inhibitors” (priority 2003, published 2004).

For data set [1], the system named is human brain endothelial cells. Nature of the data set: viability of human brain endothelial cells (LDH activity in culture medium). Type of data set: cell-based. To be noted: 24 hours; for cellular toxicity / viability of human brain endothelial cells versus control: doses employed; for LDH activity in the culture medium, ANOVA main effect: various doses. Here is the method:
(§1) Primary cultures of human brain endothelial cells were plated at a density of 10^4 cells/[…] of EBM 4% in 96 wells culture plates and treated with various doses of γ-secretase and β-secretase inhibitors as indicated in the figure legends. Following 24 hours in culture, the EBM covering the cells was removed and assayed for Lacticodehydrogenase (LDH) activity using the cytotoxicity detection kit (Roche Diagnostic Corporation, Ind.). Cells were covered with […] of EBM 4% and cellular proliferation measured using the Quick cell proliferation assay kit (Biovision Research Products, Calif.).

Data set [2] has as its system human brain endothelial cells. Briefly: proliferation of human brain endothelial cells (Quick cell proliferation assay kit). Format: cell-based. To be noted: various doses, 24 hours. Here is the method:
as §1

The target of data set [3] is γ-secretase. To be noted: 7PA2 cells; cited from earlier work.
For another data set, the system named is Aβ. Particulars: cited from earlier work.
The subject of data set [4] is Human middle cerebral artery endothelial cells. Briefly: capillary morphogenesis assay. Type of data set: cell-based. Here is the method: Two hundred μl of Matrigel were placed into each well of a 24-well culture plate at 4° C. and allowed to polymerize by incubation at 37° C. Human middle cerebral artery endothelial cells (5×104) were seeded on the Matrigel in 1 ml of EBM containing 4% fetal calf serum. The cells were incubated at 37° C. for 20 hours in a humidified 5% CO2 atmosphere in the presence or absence of various doses of γ-secretase and β-secretase inhibitors as indicated in the figure legends. The experiments were performed in quadruplicate for each treatment condition. For each culture, 2 randomly chosen fields were photographed using a 4×objective. An experimenter unaware of the different treatments measured the total length of tube structures in each photograph using the Image Pro Plus software (Media Cybernetic, Inc., Md.). Capillary network lengths for the different treatment conditions were expressed as the percentage of capillary network lengths obtained in the control condition.

Data set [5] relates to APP. Nature of the data set: α-sAPP secretion by human brain endothelial cells (immunoprecipitation, immunoblotting). Format: cell-based. Particulars: 5 μM, 24 hours. How it is done:
(§2) Confluent human brain endothelial cells (grown on 75 cm2 flasks with EBM 4% FBS medium) were treated for 24 hours with 5 μM of Z-VVL-CHO, 5 μM of L-685,458, 5 μM of OM99-2, 5 AM of DAPT or went untreated (control). Experiments were done in quadriplicate for each treatment condition. 6E10 (Signet), a mAb that recognizes residues 1-17 of human Aβ (Van Nostrand et al., Nature, 341, 546-549, 1989) was used to immunoprecipitate soluble APP generated following cleavage by α-secretase from cell culture medium. Immunoprecipitated material was resolved on a 4-20% gradient SDS-PAGE, transferred to PVDF membranes and immunodetected with mAb 22C11 (Roche Diagnostics) that recognizes the amino acids 66-81 of the N-terminal portion of APP (Hibich, C., J. Biol. Chem., 268, 26571-26577, 1993). Human brain endothelial cells were lysed on ice using MPERTM reagent (Pierce) supplemented with 1 mM PMSF and 1 mM of sodium-orthovanadate. Samples were sonicated and centrifuged at 10,000 g for 30 min at 4° C. The protein content of the lysates was determined using the BCA Protein assay kit (Pierce). Total lysates ([…] of protein/sample) were separated on a 4-20% gradient SDS-PAGE and transferred to PVDF membranes and immunoprobed with mAb 22C11 in order to detect full length APP and also immunoprobed with an Anti-APP-CT20 (Calbiochem) antibody which recognizes the amino acid residues 751-770 of the carboxyl terminal region of APP (Pinnix et al. 2001; J. Biol. Chem., 276, 481).

Data set [6] concerns APP. Nature of the data set: carboxyl-terminal APP fragments in human brain endothelial cell lysates (immunoblotting). Format: cell-based. To be noted: 5 μM, 24 hours. How it is done:
as §2

For another data set, the system named is explants of rat aortae. Nature of the data set: rat aortic ring model of angiogenesis (microvessel outgrowths). Type of data set: cell-based, Sprague Dawley rats. Here is the method: Twenty four well tissue culture grade plates (Nalgene International, NY) were covered with […] of Matrigel (Becton-Dickinson, Bedford, Mass.) and allowed to gel for 30 min at 37° C., 5% CO2. Briefly, thoracic aortae were excised from 9 month-old Sprague Dawley rats. After removing the fibroadipose tissue, arteries were sectioned into 1 mm long cross sections, rinsed 5 times with EBM (Clonetics Corp.) containing 4% fetal bovine serum (FBS) and placed on the Matrigel coated wells. Artery rings were covered with an additional […] of Matrigel. After polymerization the Matrigel was covered with 1 mL of EBM (4% FBS) containing various doses of Z-VVL-CHO, OM99-2, P10-P4′statV, DAPT, or L-685,458 as indicated in the figure legends (the culture medium was changed every 3 days). Pictures were taken at day 4, 5 and 6 using a 4×objective. Microvessel outgrowth area was quantified using the Image Pro Plus software. Briefly, ring cultures were photographed using a digital video camera linked to an Olympus BX60 microscope. The outgrowth area was delineated and measured with the Image Pro Plus software by using a strategy of microvessel outgrowth detection based on difference in color intensities between the outgrowths, the Matrigel and the artery ring. The artery rings were manually selected and excluded from the area of measurement and the color intensity threshold was adjusted to selectively measure the area occupied by the microvessel outgrowths. Results were expressed as a percentage of the area occupied by microvessel outgrowths at day 4 in control condition.

The target of data set [7] is γ-secretase. Particulars: cited from earlier work.
In data set [8] the test system is aspartyl protease cathepsin. To be noted: cited from earlier work.
The test system of a further data set is presenilin. To be noted: cited from earlier work.
The subject of the next data set is Notch. Particulars: cited from earlier work.
The target of a further data set is BACE (Homo sapiens, UniProt P56817). To be noted: cited from earlier work.
Sequence of BACE (P56817 46-501, species assumed): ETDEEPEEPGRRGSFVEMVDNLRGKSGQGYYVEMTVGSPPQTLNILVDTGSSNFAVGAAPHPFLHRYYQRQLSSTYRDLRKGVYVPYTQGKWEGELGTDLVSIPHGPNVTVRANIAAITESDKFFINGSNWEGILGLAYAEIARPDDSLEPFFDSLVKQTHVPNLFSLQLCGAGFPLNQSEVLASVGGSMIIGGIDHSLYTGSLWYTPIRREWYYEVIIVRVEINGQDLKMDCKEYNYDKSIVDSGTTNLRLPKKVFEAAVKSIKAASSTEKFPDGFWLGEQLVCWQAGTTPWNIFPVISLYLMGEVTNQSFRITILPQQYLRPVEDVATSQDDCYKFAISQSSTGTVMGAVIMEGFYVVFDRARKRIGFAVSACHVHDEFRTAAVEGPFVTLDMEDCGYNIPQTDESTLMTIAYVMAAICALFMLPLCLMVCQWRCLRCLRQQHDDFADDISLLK

Read-outs that look alike come from different tables or passages of the source. Numbered stars: 1 amine (or outer) side, 2 acyl side, 3 side chain; on linkers, the order of the positions; unused ones are H or OH. Square brackets hold non-standard residues; d marks the D form. Peptide text beside a SMILES is read from it. LeuΨ(S-CHOHCH2)Ala = CC(C)C[C@H](N[*:1])[C@@H](O)C[C@@H](C)C(=O)[*:2]; Sta = CC(C)C[C@H](N)[C@@H](O)CC(=O)O

As for `COC(=O)C(NC(=O)C(C)NC(=O)Cc1cc(F)cc(F)c1)c1ccccc1` [DAPM, N-[N-3,5-difluorophenacetyl]-L-alanyl-S-phenylglycine methyl ester], in [1], the “cellular toxicity / viability of human brain endothelial cells versus control” value is “without inducing cellular toxicity”. In addition, the “proliferation of human brain endothelial cells, dose dependence” value in [2] is given as “dose dependently inhibited”. The IC50 (as a rule, the midpoint of a concentration-inhibition curve) at γ-secretase [3] is ~10 nM. Besides, in the data set on Aβ, the “early Aβ oligomerization (Aβ dimer and trimer formation)” value is on record as “prevents”.

For `CC(C)C[C@H](NC(=O)[C@H](CC(N)=O)NC(=O)[C@@H](NC(=O)[C@@H](N)CCC(=O)O)C(C)C)[C@@H](O)CC(=O)N[C@H](C(=O)N[C@@H](C)C(=O)N[C@@H](CCC(=O)O)C(=O)N[C@@H](Cc1ccccc1)C(N)=O)C(C)C` [GL189, H-Glu-Val-Asn-Statine-Val-Ala-Glu-Phe-NH] (H-EVN[Sta]VAEF-NH2), in data set [1], the “cellular toxicity / viability of human brain endothelial cells versus control” value is “without affecting their viability”.

`CC(C)CC(NC(=O)C(Cc1ccccc1)CC(O)C(Cc1ccccc1)NC(=O)OC(C)(C)C)C(=O)NC(Cc1ccccc1)C(N)=O` [L-685,458, {1S-Benzyl-4R-[1-(1S-carbamoyl-2-phenethylcarbamoyl)-1S-3-methylbutylcarba-moyl]-2R-hydroxy-5-phenyl-pentyl}carbamic acid tert-butyl ester]: the “cellular toxicity / viability of human brain endothelial cells versus control” value in [1] was “without inducing cellular toxicity”. Besides, in data set [1], the “LDH activity in the culture medium, ANOVA main effect” value is “no main effect”. In addition, the “proliferation of human brain endothelial cells, dose dependence” value in data set [2] is given as “dose dependently inhibited”. Besides, the “capillary network length / capillary morphogenesis versus control” value in data set [4] (5 μM, 20 hours) is “potent angiogenic effect”. Also, the capillary morphogenesis entry in [4] (low dose) is listed as “stimulated capillary morphogenesis”. In addition, in the data set on APP [5], the “secretion of α-sAPP” value is “not”. Further, the results for the “accumulation of carboxyl-terminal APP fragments (APP CTF)” value in the data set on APP [6] and in the data set on APP [6] (listed as L-685-485) were “stimulates” and “promoted the accumulation”, respectively. In addition, the “area covered by microvessel outgrowths versus control” value in the data set on explants of rat aortae (1 μM) and in the data set with explants of rat aortae (5 μM) was “inhibited” in each case. Besides, the figures for the IC50 on γ-secretase [7] (read-out: Ab40 IC50), at γ-secretase [7] (read-out: Ab42 IC50) and on γ-secretase [7] (read-out: Abtotal IC50) were 48 nM, 67 nM and 17 nM, respectively. Besides, the “selectivity for γ-secretase than for the aspartyl protease cathepsin” value in [8] is reported as “over a hundred-fold greater”. For the same molecule, the binding to presenilin result with presenilin is reported as “binds to presenilin”. Besides, in the data set on Notch, the “Notch intracellular domain production” value is “blocks”.

For the molecule `CC(C)C[C@H](NC(=O)[C@H](CC(N)=O)NC(=O)[C@@H](NC(=O)[C@@H](N)CCC(=O)O)C(C)C)[C@@H](O)C[C@@H](C)C(=O)N[C@@H](C)C(=O)N[C@@H](CCC(=O)O)C(=O)N[C@@H](Cc1ccccc1)C(=O)O` [OM99-2, Glu-Val-Asn-Leu-ψ-Ala-Ala-Glu-Phe [ψ denotes replacement of CONH by (S)—CH(OH)CH2]] (H-EVN[LeuΨ(S-CHOHCH2)Ala]AEF-OH), in data set [1], the “cellular toxicity / viability of human brain endothelial cells versus control” value is given as “without affecting their viability” and the “LDH activity in the culture medium, ANOVA main effect” value is given as “significant main effect”.

Consider “H-Lys-Thr-Glu-Glu-Ile-Ser-Glu-Val-Asn-Stat-Val-Ala-Glu-Phe-OH [P10-P4′statV, H-Lys-Thr-Glu-Glu-Ile-Ser-Glu-Val-Asn-Stat-Val-Ala-Glu-Phe-OH [Stat=(3S,4S)-Statine]]”, for which, in the data set on explants of rat aortae (day 4, 5 and 6), the “sprouting of microvessel outgrowths, overall / dose dependence” value was “dose dependently and potently inhibited”. The IC50 at BACE is 30 nM.
